From patent US20260274832A1, “COMPOUNDS AND THEIR USE IN TREATING CANCER” (ASTRAZENECA AB, priority 2023, published 2026)

Key:
[1] = target: T1, AR (L702H) in LNCaP cells (Homo sapiens, UniProt P10275, L702H/T878A); assay: LNCaP Androgen Receptor L702H Imaging Assay (LNCaP cells engineered by CRISPR/Cas9); assay type: cell-based; details: LNCaP cells with AR L702H mutation, 24 h incubation; for DC50: concentration giving 50% of maximum degradation of AR (L702H) per curve fit; for Dmax: LNCaP
T1 construct: engineered to introduce the mutation L702H into the AR gene using CRISPR/Cas9; endogenous in cells; host or cells: LNCaP cells edited by CRISPR/Cas9 at the AR gene
T1 sequence (P10275 whole entry L702H/T878A): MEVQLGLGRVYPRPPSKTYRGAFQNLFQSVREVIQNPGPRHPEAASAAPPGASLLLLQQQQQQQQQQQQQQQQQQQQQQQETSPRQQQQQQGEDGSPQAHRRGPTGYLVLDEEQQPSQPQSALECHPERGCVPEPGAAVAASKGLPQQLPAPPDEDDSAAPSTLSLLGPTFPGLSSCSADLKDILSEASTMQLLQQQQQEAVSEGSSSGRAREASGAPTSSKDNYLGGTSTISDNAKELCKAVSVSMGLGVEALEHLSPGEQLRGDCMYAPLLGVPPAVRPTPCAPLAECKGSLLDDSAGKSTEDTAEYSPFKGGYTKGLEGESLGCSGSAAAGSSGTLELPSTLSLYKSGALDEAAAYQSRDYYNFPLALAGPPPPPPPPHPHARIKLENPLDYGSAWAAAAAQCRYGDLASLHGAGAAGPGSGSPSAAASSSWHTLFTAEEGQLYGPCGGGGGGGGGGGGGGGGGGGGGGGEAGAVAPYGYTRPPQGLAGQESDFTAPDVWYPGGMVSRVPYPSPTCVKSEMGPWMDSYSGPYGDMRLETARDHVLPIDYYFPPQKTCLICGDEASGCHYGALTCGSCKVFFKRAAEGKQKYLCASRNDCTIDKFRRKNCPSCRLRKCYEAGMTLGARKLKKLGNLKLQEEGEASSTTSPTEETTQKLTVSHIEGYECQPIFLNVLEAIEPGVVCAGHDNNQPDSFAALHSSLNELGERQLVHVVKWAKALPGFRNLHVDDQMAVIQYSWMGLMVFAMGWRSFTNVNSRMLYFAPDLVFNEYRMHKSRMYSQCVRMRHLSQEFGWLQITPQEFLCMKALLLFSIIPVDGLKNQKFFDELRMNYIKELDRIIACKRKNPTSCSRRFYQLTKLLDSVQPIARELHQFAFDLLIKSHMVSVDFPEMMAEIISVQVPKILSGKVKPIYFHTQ
T1 sequence (Q96SW2 whole entry partner): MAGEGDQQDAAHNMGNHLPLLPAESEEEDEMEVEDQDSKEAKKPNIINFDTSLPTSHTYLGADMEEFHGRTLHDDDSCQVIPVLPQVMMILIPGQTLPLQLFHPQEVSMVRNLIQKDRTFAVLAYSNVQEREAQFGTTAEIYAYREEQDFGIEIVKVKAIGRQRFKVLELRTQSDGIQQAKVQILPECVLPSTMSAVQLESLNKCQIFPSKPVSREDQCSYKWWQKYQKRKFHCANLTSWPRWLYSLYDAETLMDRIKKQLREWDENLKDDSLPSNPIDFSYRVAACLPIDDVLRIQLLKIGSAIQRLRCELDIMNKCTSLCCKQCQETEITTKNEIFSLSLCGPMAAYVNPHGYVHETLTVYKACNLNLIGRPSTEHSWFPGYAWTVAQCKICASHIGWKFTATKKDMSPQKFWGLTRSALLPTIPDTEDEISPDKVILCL
In short: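 AR (L702H) degradation, expressed as DC50 and Dmax from curve fits normalized to a positive degrader control, was measured by high-content imaging of anti-AR immunofluorescence. The engineered LNCaP line was dosed over 12 concentrations for 24 h, 0.3% DMSO final, before PFA fixation.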

[2] = target: T2, AR (AR-full length) in LNCaP cells (Homo sapiens, UniProt P10275, T878A); assay: LNCaP Androgen Receptor Imaging Assay (immunofluorescence of endogenous nuclear AR); assay type: cell-based; details: 24 h incubation; for DC50: concentration giving 50% of maximum degradation of AR per curve fit, single experiment or average of two or more; for Dmax: LNCaP
T2 construct: the prostate cancer cell line LNCaP (expressing AR-full length); endogenous in cells; host or cells: LNCaP
T2 sequence (P10275 whole entry T878A): as the sequence (P10275 whole entry L702H/T878A) above, with H702L counted along it
T2 sequence (Q96SW2 whole entry partner): as the sequence (Q96SW2 whole entry partner) above
In short: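 Endogenous nuclear AR level was imaged by immunofluorescence after 24 h compound exposure (12-point dose response, 0.3% DMSO, 37° C./5% CO2) in LNCaP cells. Data were expressed as % of a 3 μM prior-art AR PROTAC control and fitted (bell fit where a hook appeared) to give DC50 and maximum degradation Dmax.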

[3] = maximum degradation observed, normalized as % of positive control
[4] = maximum degradation observed, normalized as % of positive control (prior art AR PROTAC at 3 μM)

Compound | DC50 [1] [nM] | LNCaP AR (L702H) Degradation Dmax [1, 3] [%] | DC50 [2] [nM] | LNCaP AR Degradation Dmax [2, 4] [%] | Dmax [1, 3] [%] | Dmax [2, 4] [%]
COc1cc(N2CCN(CC3CCN(c4ccc(C5CCN(c6ccc(Cl)c7c(C#N)c[nH]c67)CC5)cc4)CC3)CC2)cc2c1C(=O)N(C1CCC(=O)NC1=O)C2 (single isomer, unassigned) [Example 17, 4-Chloro-7-[4-(4-{4-[(4-{2-[(3S*)-2,6-dioxopiperidin-3-yl]-7-methoxy-1-oxo-2,3-dihydro-1H-isoindol-5-yl}piperazin-1-yl)methyl]piperidin-1-yl}phenyl)piperidin-1-yl]-1H-indole-3-carbonitrile] | 4 | 102 | 3 | 100 |  | 
COc1nc(N2CCN(CC3CCN(c4ccc(C5CCN(c6ccc(Cl)c7c(C#N)c[nH]c67)CC5)nc4)CC3)CC2)cc2c1C(=O)N(C1CCC(=O)NC1=O)C2 (centres unmarked) [Example 61, 4-Chloro-7-(4-{5-[4-({4-[2-(2,6-dioxopiperidin-3-yl)-4-methoxy-3-oxo-2,3-dihydro-1H-pyrrolo[3,4-c]pyridin-6-yl]piperazin-1-yl}methyl)piperidin-1-yl]pyridin-2-yl}piperidin-1-yl)-1H-indole-3-carbonitrile] | 25 |  | 6 |  | 65 | 94
N#Cc1c[nH]c2c(N3CCC(c4cnc(N5CCC(CN6CCC(n7ccc8c(N9CCC(=O)NC9=O)cccc87)CC6)CC5)cn4)CC3)ccc(Cl)c12 [Example 67] | 14 |  | 4 |  | 87 | 98
N#Cc1c[nH]c2c(N3CCC(c4ccc(CN5CCN(CC6CCN(c7ccc8c(c7)CN(C7CCC(=O)NC7=O)C8=O)CC6)CC5)cc4)CC3)ccc(F)c12 (centres unmarked) [Example 107, 7-[4-(4-{[4-({1-[2-(2,6-Dioxopiperidin-3-yl)-1-oxo-2,3-dihydro-1H-isoindol-5-yl]piperidin-4-yl}methyl)piperazin-1-yl]methyl}phenyl)piperidin-1-yl]-4-fluoro-1H-indole-3-carbonitrile] | 300 |  | 6 |  | 107 | 93
N#Cc1c[nH]c2c(N3CCC[C@H](c4ccc(N5CCC(CN6CCN(c7cc8c(cc7F)C(=O)N(C7CCC(=O)NC7=O)C8=O)CC6)CC5)cc4)C3)ccc(Cl)c12 (stereo partly drawn) [Example 54, 4-Chloro-7-[(3R)-3-{4-[4-({4-[2-(2,6-dioxopiperidin-3-yl)-6-fluoro-1,3-dioxo-2,3-dihydro-1H-isoindol-5-yl]piperazin-1-yl}methyl)piperidin-1-yl]phenyl}piperidin-1-yl]-1H-indole-3-carbonitrile] | 52 |  | 36 |  | 97 | 77
N#Cc1c[nH]c2c(N3CCC(c4ccc(N5CCC(CN6CCC(n7ccc8c(N9CCC(=O)NC9=O)cccc87)CC6)CC5)cc4)CC3)ccc(F)c12 [Example 6, 7-(4-{4-[4-({4-[4-(2,4-Dioxo-1,3-diazinan-1-yl)-1H-indol-1-yl]piperidin-1-yl}methyl)piperidin-1-yl]phenyl}piperidin-1-yl)-4-fluoro-1H-indole-3-carbonitrile] | 13 |  | 10 |  | 103 | 100
N#Cc1c[nH]c2c(N3CCC(NC(=O)c4ccc(N5CCC(CN6CCC(n7ccc8c(N9CCC(=O)NC9=O)cccc87)CC6)CC5)cc4F)CC3)ccc(Cl)c12 [Example 160, N-[1-(4-Chloro-3-cyano-1H-indol-7-yl)piperidin-4-yl]-4-[4-({4-[4-(2,4-dioxo-1,3-diazinan-1-yl)-1H-indol-1-yl]piperidin-1-yl}methyl)piperidin-1-yl]-2-fluorobenzamide] | 4 |  | 1 |  | 105 | 104
N#Cc1c[nH]c2c(N3CCC(c4ccc(N5CCO[C@H](CN6CCN(c7ccc8c(c7)CN(C7CCC(=O)NC7=O)C8=O)CC6)C5)cc4)CC3)ccc(Cl)c12 (stereo partly drawn) [Example 127, 4-Chloro-7-(4-{4-[(2R)-2-({4-[2-(2,6-dioxopiperidin-3-yl)-1-oxo-2,3-dihydro-1H-isoindol-5-yl]piperazin-1-yl}methyl)morpholin-4-yl]phenyl}piperidin-1-yl)-1H-indole-3-carbonitrile] | 4 |  | 4 |  | 110 | 100
N#Cc1c[nH]c2c(N3CCC(c4ccc(OCCCCN5CCN(c6ccc7c(c6)CN(C6CCC(=O)NC6=O)C7=O)CC5)cc4)CC3)ccc(F)c12 (centres unmarked) [Example 44, 7-{4-[4-(4-{4-[2-(2,6-Dioxopiperidin-3-yl)-1-oxo-2,3-dihydro-1H-isoindol-5-yl]piperazin-1-yl}butoxy)phenyl]piperidin-1-yl}-4-fluoro-1H-indole-3-carbonitrile] | 2 |  | 4 |  | 96 | 95
COc1cc(N2CCN(CC3CCN(c4ccc(C5CCN(c6ccc(Cl)c7c(C#N)c[nH]c67)CC5)cc4)CC3)CC2)cc2c1C(=O)N(C1CCC(=O)NC1=O)C2=O (centres unmarked) [Example 49, 4-Chloro-7-(4-{4-[4-({4-[2-(2,6-dioxopiperidin-3-yl)-7-methoxy-1,3-dioxo-2,3-dihydro-1H-isoindol-5-yl]piperazin-1-yl}methyl)piperidin-1-yl]phenyl}piperidin-1-yl)-1H-indole-3-carbonitrile] | 45 |  | 33 |  | 97 | 91

Continued by falling DC50 [1], values first:

DC50 [1] [nM] | LNCaP AR (L702H) Degradation Dmax [1, 3] [%] | DC50 [2] [nM] | LNCaP AR Degradation Dmax [2, 4] [%] | Dmax [1, 3] [%] | Dmax [2, 4] [%] | Compound
95 |  | 21 |  | 75 | 97 | COc1nc(N2CCN(CC3CCN(c4ccc(C5CCN(c6ccc(F)c7c(C#N)n[nH]c67)CC5)cc4)CC3)CC2)cc2c1C(=O)N(C1CCC(=O)NC1=O)C2 (centres unmarked) [Example 144, 7-(4-{4-[4-({4-[2-(2,6-Dioxopiperidin-3-yl)-4-methoxy-3-oxo-2,3-dihydro-1H-pyrrolo[3,4-c]pyridin-6-yl]piperazin-1-yl}methyl)piperidin-1-yl]phenyl}piperidin-1-yl)-4-fluoro-1H-indazole-3-carbonitrile]
36 |  | 5 |  | 85 | 96 | Cc1ccc(N2CCC(NC(=O)c3ccc(N4CCC(CN5CCN(c6cc7c(cc6F)C(=O)N(C6CCC(=O)NC6=O)C7=O)CC5)CC4)cn3)CC2)c2[nH]cc(C#N)c12 (centres unmarked) [Example 171, N-[1-(3-Cyano-4-methyl-1H-indol-7-yl)piperidin-4-yl]-5-[4-({4-[2-(2,6-dioxopiperidin-3-yl)-6-fluoro-1,3-dioxo-2,3-dihydro-1H-isoindol-5-yl]piperazin-1-yl}methyl)piperidin-1-yl]pyridine-2-carboxamide]
23 |  | 5 |  | 94 | 86 | N#Cc1c[nH]c2c(N3CCC(NC(=O)c4ccc(N5CCC(CN6CCN(c7cc8c(cc7F)C(=O)N(C7CCC(=O)NC7=O)C8=O)CC6)CC5)cn4)CC3)ccc(Cl)c12 (centres unmarked) [Example 169, N-[1-(4-Chloro-3-cyano-1H-indol-7-yl)piperidin-4-yl]-5-[4-({4-[2-(2,6-dioxopiperidin-3-yl)-6-fluoro-1,3-dioxo-2,3-dihydro-1H-isoindol-5-yl]piperazin-1-yl}methyl)piperidin-1-yl]pyridine-2-carboxamide]
18 |  | 9 |  | 105 | 102 | N#Cc1c[nH]c2c(N3CCC[C@@H](c4ccc(N5CCC(CN6CCC(n7ccc8c(N9CCC(=O)NC9=O)cccc87)CC6)CC5)cc4)C3)ccc(Cl)c12 [Example 11]
12 |  | 8 |  | 110 | 103 | N#Cc1c[nH]c2c(N3CCC(c4ccc(N5CCC(CN6CCC(n7ccc8c(N9CCC(=O)NC9=O)cccc87)CC6)CC5)cc4)CC3)ccc(Cl)c12 [Example 5, 4-Chloro-7-(4-{4-[4-({4-[4-(2,4-dioxo-1,3-diazinan-1-yl)-1H-indol-1-yl]piperidin-1-yl}methyl)piperidin-1-yl]phenyl}piperidin-1-yl)-1H-indole-3-carbonitrile]
5 |  | 6 |  | 101 | 96 | N#Cc1c[nH]c2c(N3CCC(c4ccc(N5CCC(CN6CCN(c7ccc8c(c7)CN(C7CCC(=O)NC7=O)C8=O)CC6)CC5)cc4)CC3)ccc(F)c12 (centres unmarked) [Example 2, 7-(4-{4-[4-({4-[2-(2,6-Dioxopiperidin-3-yl)-1-oxo-2,3-dihydro-1H-isoindol-5-yl]piperazin-1-yl}methyl)piperidin-1-yl]phenyl}piperidin-1-yl)-4-fluoro-1H-indole-3-carbonitrile]
2 |  | 2 |  | 108 | 105 | N#Cc1n[nH]c2c(N3CCC(NC(=O)c4ccc(N5CCC(CN6CCC(n7ccc8c(N9CCC(=O)NC9=O)cccc87)CC6)CC5)cc4F)CC3)ccc(Cl)c12 [Example 152, N-[1-(4-Chloro-3-cyano-1H-indazol-7-yl)piperidin-4-yl]-4-[4-({4-[4-(2,4-dioxo-1,3-diazinan-1-yl)-1H-indol-1-yl]piperidin-1-yl}methyl)piperidin-1-yl]-2-fluorobenzamide]
